For the experiment, the target named is T1, Histone acetyltransferase KAT6A [507-778] (Homo sapiens, UniProt Q92794).
T1 construct: 507-778
The experiment can be described thus: Inhibition of KAT6A Enzyme Activity Assay. On the procedure:
1× experimental buffer (modified Tris buffer) was prepared, and the compounds were dissolved with 100% DMSO to form 10 mM reservoir solution and diluted according to a certain concentration gradient. The compounds were transferred to a 384-well plate using an automatic sampler Echo, and the final concentration of DMSO was 1%. 1× KAT6A enzyme (catalytic domain) solution was prepared. A mixed solution of [3H]-acetyl-CoA (PERKIN ELMER, Cat. No. NET290250UC) and the substrate peptide H3 (1-21) was prepared. 10 μL of the enzyme solution was transferred to the 384-well plate and incubated at room temperature for 15 minutes. 10 μL of the mixed solution of [3H]-acetyl-CoA and the substrate peptide H3 (1-21) were added to the plate to initiate the reaction. The plate was incubated at room temperature for 1 hour. 10 μL of the stop solution was added to terminate the reaction. 25 μL of the reaction solution was transferred to a Flashplate (Perkin Elmer, Cat. No. SMP410A001PK) and incubated at room temperature for 1 hour. The plate was read using Microbeta. The inhibition rate of the compounds was calculated using the formula of Excel: inhibition %=(Max-Signal)/(Max−Min)*100%. Where max is the value of the DMSO control, min is the value of the non-enzymatic control, and signal is the value of the well where the compound was tested.

T1 sequence (Q92794 507-778): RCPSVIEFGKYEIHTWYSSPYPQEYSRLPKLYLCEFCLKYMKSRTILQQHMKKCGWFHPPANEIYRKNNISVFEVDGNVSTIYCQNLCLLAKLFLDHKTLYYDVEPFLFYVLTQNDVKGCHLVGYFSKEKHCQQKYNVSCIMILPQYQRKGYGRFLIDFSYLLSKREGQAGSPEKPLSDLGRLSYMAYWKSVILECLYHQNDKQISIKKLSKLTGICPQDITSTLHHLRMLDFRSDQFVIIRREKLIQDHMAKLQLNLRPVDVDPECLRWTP

As a reminder, the IC50 is the midpoint of a concentration-inhibition curve. Read a high IC50 as a need for much substance. Turning to `C#Cc1ccc(OC)c(S(=O)(=O)Nc2noc3cc(Cn4cccn4)cc(OC)c23)c1` [US20240400545, Compound 3], the IC50 is less than 0.02 µM.

As to `COc1ccc(N2CCN(C)CC2)cc1S(=O)(=O)Nc1noc2cc(Cn3cccn3)cc(OC)c12` [US20240400545, Compound 5], the IC50 is less than 0.2 µM.

The molecule `COc1ccc(N2CCOCC2)cc1S(=O)(=O)Nc1noc2cc(Cn3cccn3)cc(OC)c12` [US20240400545, Compound 6] returned an IC50 of less than 0.1 µM.

On to `COc1ccc(C#CC2CC2)cc1S(=O)(=O)Nc1noc2cc(Cn3cccn3)cc(OC)c12` [US20240400545, Compound 7], for which the half-inhibitory concentration (IC50) was less than 0.01 µM.

`COc1ccc(C#CC2CC2)cc1S(=O)(=O)NC(=O)c1cc2ccc(N(C)C)cc2o1` [US20240400545, Compound 8] came in with an IC50 of less than 1 µM.

With `CC#Cc1cc(OC)c(S(=O)(=O)Nc2noc3cc(Cn4cccn4)cc(OC)c23)c(OC)c1` [US20240400545, Compound 9], the IC50 is less than 0.01 µM.

In turn, `COc1cc(C#CC2CC2)cc(OC)c1S(=O)(=O)Nc1noc2cc(Cn3cccn3)cc(OC)c12` [US20240400545, Compound 10] showed an IC50 of less than 0.005 µM.

In turn, `C#Cc1ccc(S(=O)(=O)Nc2noc3cc(Cn4cccn4)cc(OC)c23)c(OC)c1` [US20240400545, Compound 11] displayed a half-inhibitory concentration (IC50) of less than 0.01 µM.

`COc1cc(C#CC2CC2)ccc1S(=O)(=O)Nc1noc2cc(Cn3cccn3)cc(OC)c12` [US20240400545, Compound 12] gave an IC50 of less than 0.01 µM.

`CC#Cc1ccc(OC)c(S(=O)(=O)Nc2noc3cc(Cn4cccn4)cc(OC)c23)c1` [US20240400545, Compound 13] came in with an IC50 of less than 0.02 µM.

Molecule `COc1cc(C#CC2CC(F)(F)C2)cc(OC)c1S(=O)(=O)Nc1noc2cc(Cn3cccn3)cc(OC)c12` [US20240400545, Compound 15] displayed an IC50 of less than 0.005 µM.

In turn, `CC#Cc1ccc(S(=O)(=O)Nc2noc3cc(Cn4cccn4)cc(OC)c23)c(OC)c1` [US20240400545, Compound 16] yielded an IC50 of less than 0.01 µM.

`COc1cc(C#Cc2cccnc2)cc(O)c1S(=O)(=O)Nc1noc2cc(Cn3cccn3)cc(OC)c12` [US20240400545, Compound 19'] registered an IC50 of less than 0.01 µM.

`COc1cc(C#Cc2cccnc2)cc(OC)c1S(=O)(=O)Nc1noc2cc(Cn3cccn3)cc(OC)c12` [US20240400545, Compound 19]: the IC50 is less than 0.005 µM.

`COc1cc(C#CC2CN(C(=O)OC(C)(C)C)C2)cc(OC)c1S(=O)(=O)Nc1noc2cc(Cn3cccn3)cc(OC)c12` [US20240400545, Compound 20] displayed an IC50 of less than 0.005 µM.

Take `COc1cc(C#CC2CNC2)cc(OC)c1S(=O)(=O)Nc1noc2cc(Cn3cccn3)cc(OC)c12` [US20240400545, Compound 21]: the IC50 is less than 0.01 µM.

For the molecule `COc1cc(C#CC2CN(C)C2)cc(OC)c1S(=O)(=O)Nc1noc2cc(Cn3cccn3)cc(OC)c12` [US20240400545, Compound 22], the IC50 was less than 0.02 µM.

In the case of `CC#Cc1cccc(OC)c1S(=O)(=O)Nc1noc2cc(Cn3cccn3)cc(OC)c12` [US20240400545, Compound 23], the IC50 was less than 0.02 µM.

In turn, `COc1cc(C#CC2CN(C)C2)ccc1S(=O)(=O)Nc1noc2cc(Cn3cccn3)cc(OC)c12` [US20240400545, Compound 24] yielded an IC50 of less than 0.02 µM.
